# Reference: patent publication US6184018A, “β-glucosidase coding sequences and protein from orpinomyces PC-2” (University of Georgia Research Foundation, Inc., priority 1999, dated 2001)
# Where two headings read alike, the source gives them in different places.
# Legend:
# [1] = test system: native β-glucosidase of Orpinomyces PC-2; settings: Chen et al. (1994), cited from earlier work
# [2] = test system: β-glucosidase from T. reesei; settings: Chen et al. (1992), cited from earlier work
# [3] = target: β-glucosidase from Aspergillus niger (Aspergillus niger, UniProt A2RAL4); settings: read-out: Cellobiose affinity (Km); Hoh et al. (1992); cited from earlier work
# Chain of β-glucosidase from Aspergillus niger (A2RAL4 20-860): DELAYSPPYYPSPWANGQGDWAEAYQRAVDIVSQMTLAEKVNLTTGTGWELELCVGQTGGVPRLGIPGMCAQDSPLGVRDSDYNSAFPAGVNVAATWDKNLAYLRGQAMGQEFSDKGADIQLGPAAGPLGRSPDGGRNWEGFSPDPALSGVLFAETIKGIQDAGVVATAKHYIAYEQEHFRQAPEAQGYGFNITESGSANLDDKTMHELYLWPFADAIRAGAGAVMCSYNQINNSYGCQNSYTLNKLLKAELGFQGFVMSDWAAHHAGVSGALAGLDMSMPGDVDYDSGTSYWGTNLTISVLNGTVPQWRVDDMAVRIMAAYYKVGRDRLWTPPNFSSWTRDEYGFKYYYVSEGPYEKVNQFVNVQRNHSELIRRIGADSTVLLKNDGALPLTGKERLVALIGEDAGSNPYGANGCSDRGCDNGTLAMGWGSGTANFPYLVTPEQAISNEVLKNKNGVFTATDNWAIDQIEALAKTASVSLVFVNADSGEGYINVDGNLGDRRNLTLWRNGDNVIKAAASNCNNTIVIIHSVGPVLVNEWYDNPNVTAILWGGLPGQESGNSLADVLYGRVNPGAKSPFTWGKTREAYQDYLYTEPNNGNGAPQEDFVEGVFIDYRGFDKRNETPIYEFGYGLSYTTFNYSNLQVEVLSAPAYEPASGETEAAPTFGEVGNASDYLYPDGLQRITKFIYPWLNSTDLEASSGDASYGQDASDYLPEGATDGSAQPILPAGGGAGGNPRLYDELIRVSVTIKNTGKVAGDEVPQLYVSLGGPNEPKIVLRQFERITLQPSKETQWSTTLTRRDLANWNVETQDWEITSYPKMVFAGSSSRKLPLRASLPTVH
# [4] = test system: β-glucosidase from Aspergillus nidulans; settings: Kwon et al. (1992), cited from earlier work
# [5] = test system: β-glucosidase from Aureobasidium pullulans; settings: Saha et al. (1995), cited from earlier work
# [6] = test system: β-glucosidase from Thermotoga sp; settings: Ruthersmith and Daniel (1993), cited from earlier work
# [7] = test system: β-glucosidase from Sporotrichum thermophile; settings: Bhat et al. (1993), cited from earlier work
# [8] = test system: β-glucosidase from Clostridium thermocellum; settings: Katayeva et al. (1992); read-out: Cellobiose affinity (Km); cited from earlier work
# [9] = target: T1, Orpinomyces sp. strain PC-2 β-glucosidase BglA, recombinant, secreted from S. cerevisiae, SEQ ID NO:2 (Orpinomyces sp. PC-2, UniProt Q9UUQ3); experiment: Kinetic parameters of purified secreted recombinant BglA (Lineweaver-Burk plots); format: biochemical
# T1 sequence (Q9UUQ3 17-657): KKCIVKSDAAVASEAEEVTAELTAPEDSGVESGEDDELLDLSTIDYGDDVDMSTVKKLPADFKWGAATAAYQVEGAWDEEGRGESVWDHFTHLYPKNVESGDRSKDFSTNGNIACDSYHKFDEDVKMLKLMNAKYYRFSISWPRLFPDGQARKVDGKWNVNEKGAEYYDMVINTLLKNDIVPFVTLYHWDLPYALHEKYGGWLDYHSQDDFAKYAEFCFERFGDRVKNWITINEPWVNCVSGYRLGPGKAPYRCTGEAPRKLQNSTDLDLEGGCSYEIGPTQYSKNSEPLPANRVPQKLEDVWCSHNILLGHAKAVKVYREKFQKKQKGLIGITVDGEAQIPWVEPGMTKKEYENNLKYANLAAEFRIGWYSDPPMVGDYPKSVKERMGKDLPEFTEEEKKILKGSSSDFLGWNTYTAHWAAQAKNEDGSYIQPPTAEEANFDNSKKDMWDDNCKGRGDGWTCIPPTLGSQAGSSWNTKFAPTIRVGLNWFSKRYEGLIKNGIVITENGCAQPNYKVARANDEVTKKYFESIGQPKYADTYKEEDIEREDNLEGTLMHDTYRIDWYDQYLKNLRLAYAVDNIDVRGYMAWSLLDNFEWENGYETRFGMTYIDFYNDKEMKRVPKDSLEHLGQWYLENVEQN
# Procedure: (§1) β-Glucosidase (.rho.-nitrophenyl-β-D-glucosidase [.rho.NPGase]) and cellobiase activities were determined by the following standard procedures. With .rho.-nitrophenyl-β-D-glucoside (.rho.NPG) as the substrate, the reaction mixture of 1.2 ml contained 0.3 ml of appropriately diluted enzyme solution, 0.6 ml of 50 mM sodium phosphate buffer, pH 6.0, and 0.3 ml of 12 mM .rho.NPG. The reaction was carried out for 10 min at 40° C. and stopped by the addition of 2.4 ml of 1M Na2 CO3. The liberated .rho.-nitrophenol was measured spectrophotometrically at 405 nm [Herr et al. (1978) Appl. Microbiol. Biotechnol. 5:29-36; Chen et al. (1992) Biochem. Biophys. Acta. 1121:54-60]. Cellobiase activity was determined by using a reaction mixture of 2 ml containing 1 ml of appropriately diluted enzyme solution in 50 mM sodium phosphate buffer, pH 6.0, and 1 ml of 2 mM cellobiose. The reaction was carried out at 40° C. for 30 min and was stopped by placing the assay tubes in boiling water for 5 min. Liberated glucose was measured with a glucose determination kit (Sigma Chemical Co., St. Louis, Mo.) according to the manufacturer's instructions. One unit of β-glucosidase or cellobiase activity is defined as the amount of enzyme required to hydrolyze 1 μmole of substrate per min. Specific activity is expressed as unit per milligram of protein. […]
# [10] = substrate: O=[N+]([O-])c1ccc(O[C@@H]2O[C@H](CO)[C@@H](O)[C@H](O)[C@H]2O)cc1; experiment: as above; format: biochemical, Orpinomyces sp. strain PC-2; settings: other: 40° C. and pH 6.0
# Procedure: as §1
# [11] = substrate: OC[C@H]1O[C@@H](O[C@H]2[C@H](O)[C@@H](O)C(O)O[C@@H]2CO)[C@H](O)[C@@H](O)[C@@H]1O; experiment: as above; format: biochemical, Orpinomyces sp. strain PC-2; settings: other: 40° C. and pH 6.0
# Procedure: as §1
# [12] = read-out: Cellobiose affinity (Km)
# [13] = read-out: Glucose inhibition (Ki)
molecule,measurement,setting,value
"OC[C@H]1O[C@@H](O[C@H]2[C@H](O)[C@@H](O)C(O)O[C@@H]2CO)[C@H](O)[C@@H](O)[C@@H]1O (stereo partly drawn) [Cellobiose, cellobiose (β-1,4-glucobiose)]",Km,[1]; [12],250 µM
same,Km,[2]; [12],2100 µM
same,Km,[3],890 µM
same,Km,[4]; [12],1000 µM
same,Km,[5]; [12],5650 µM
same,Km,[6]; [12],19000 µM
same,Km,[7]; [12],830 µM
same,Km,[8],77000 µM
OC[C@H]1OC(O)[C@H](O)[C@@H](O)[C@@H]1O (stereo partly shown) [Glucose],Ki,[9],3600 µM
same,Ki,[1]; [13],8750 µM
same,Ki,[2]; [13],620 µM
same,Ki,[4]; [13],5480 µM
same,Ki,[5]; [13],1000 µM
same,Ki,[6]; [13],420 µM
same,Ki,[7]; [13],500 µM
"O=C1O[C@H](CO)[C@@H](O)[C@H](O)[C@H]1O [glucono-1,5-lactone, reference compound]",Ki,"[9]; competitive inhibition, pNPG and cellobiose as substrates, read-out: Ki of glucono-1,5-lactone",50 µM
"O=[N+]([O-])c1ccc(O[C@@H]2O[C@H](CO)[C@@H](O)[C@H](O)[C@H]2O)cc1 [pNPG, .rho.-nitrophenyl-β-D-glucoside, reference compound]",Km,[1]; read-out: Km (pNPG as substrate),350 µM
"Orpinomyces sp. strain PC-2 β-glucosidase BglA, recombinant, secreted from S. cerevisiae, SEQ ID NO:2 (Orpinomyces sp. PC-2) (protein) KKCIVKSDAAVASEAEEVTAELTAPEDSGVESGEDDELLDLSTIDYGDDVDMSTVKKLPADFKWGAATAAYQVEGAWDEEGRGESVWDHFTHLYPKNVESGDRSKDFSTNGNIACDSYHKFDEDVKMLKLMNAKYYRFSISWPRLFPDGQARKVDGKWNVNEKGAEYYDMVINTLLKNDIVPFVTLYHWDLPYALHEKYGGWLDYHSQDDFAKYAEFCFERFGDRVKNWITINEPWVNCVSGYRLGPGKAPYRCTGEAPRKLQNSTDLDLEGGCSYEIGPTQYSKNSEPLPANRVPQKLEDVWCSHNILLGHAKAVKVYREKFQKKQKGLIGITVDGEAQIPWVEPGMTKKEYENNLKYANLAAEFRIGWYSDPPMVGDYPKSVKERMGKDLPEFTEEEKKILKGSSSDFLGWNTYTAHWAAQAKNEDGSYIQPPTAEEANFDNSKKDMWDDNCKGRGDGWTCIPPTLGSQAGSSWNTKFAPTIRVGLNWFSKRYEGLIKNGIVITENGCAQPNYKVARANDEVTKKYFESIGQPKYADTYKEEDIEREDNLEGTLMHDTYRIDWYDQYLKNLRLAYAVDNIDVRGYMAWSLLDNFEWENGYETRFGMTYIDFYNDKEMKRVPKDSLEHLGQWYLENVEQN",Km,[10],762 µM
same,Km,[11],310 µM
